Test results: publication PMC8148022 (Cancer letters, 2018)

Biological target: T1, breast cancer resistance protein (BCRP) (Homo sapiens, UniProt Q9UNQ0)
T1 sequence (Q9UNQ0 1-655): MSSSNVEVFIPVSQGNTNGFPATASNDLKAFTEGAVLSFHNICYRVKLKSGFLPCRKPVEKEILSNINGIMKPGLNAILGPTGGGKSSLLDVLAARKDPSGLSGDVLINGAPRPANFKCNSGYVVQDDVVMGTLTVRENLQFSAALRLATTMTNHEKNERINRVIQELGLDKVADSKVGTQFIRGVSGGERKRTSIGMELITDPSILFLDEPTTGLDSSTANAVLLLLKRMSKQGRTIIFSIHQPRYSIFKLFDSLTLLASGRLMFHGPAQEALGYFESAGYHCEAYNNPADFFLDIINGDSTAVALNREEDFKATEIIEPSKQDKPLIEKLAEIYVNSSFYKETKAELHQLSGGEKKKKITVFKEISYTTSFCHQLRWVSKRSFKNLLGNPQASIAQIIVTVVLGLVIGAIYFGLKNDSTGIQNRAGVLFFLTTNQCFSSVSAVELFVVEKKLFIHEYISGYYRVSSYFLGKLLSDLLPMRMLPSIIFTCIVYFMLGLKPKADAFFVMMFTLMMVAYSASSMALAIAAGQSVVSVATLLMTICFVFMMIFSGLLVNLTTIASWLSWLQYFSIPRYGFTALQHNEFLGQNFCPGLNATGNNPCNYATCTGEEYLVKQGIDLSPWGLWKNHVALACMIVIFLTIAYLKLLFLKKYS
Experiment: biochemical

- EC50: 3.59 ± 0.42 µM
SMILES: CNC(=O)c1cc(Oc2ccc(NC(=O)Nc3ccc(Cl)c(C(F)(F)F)c3)c(F)c2)ccn1 [regorafenib]
